Here are results for 22 compounds from ChEMBL document CHEMBL5725671, “Heterocyclic compounds useful as PDK1 inhibitors” (2018).

Structures are written as SMILES.

This assay has as its target T1, 3-phosphoinositide-dependent protein kinase 1 (Homo sapiens, UniProt O15530).
T1 sequence (O15530 whole entry): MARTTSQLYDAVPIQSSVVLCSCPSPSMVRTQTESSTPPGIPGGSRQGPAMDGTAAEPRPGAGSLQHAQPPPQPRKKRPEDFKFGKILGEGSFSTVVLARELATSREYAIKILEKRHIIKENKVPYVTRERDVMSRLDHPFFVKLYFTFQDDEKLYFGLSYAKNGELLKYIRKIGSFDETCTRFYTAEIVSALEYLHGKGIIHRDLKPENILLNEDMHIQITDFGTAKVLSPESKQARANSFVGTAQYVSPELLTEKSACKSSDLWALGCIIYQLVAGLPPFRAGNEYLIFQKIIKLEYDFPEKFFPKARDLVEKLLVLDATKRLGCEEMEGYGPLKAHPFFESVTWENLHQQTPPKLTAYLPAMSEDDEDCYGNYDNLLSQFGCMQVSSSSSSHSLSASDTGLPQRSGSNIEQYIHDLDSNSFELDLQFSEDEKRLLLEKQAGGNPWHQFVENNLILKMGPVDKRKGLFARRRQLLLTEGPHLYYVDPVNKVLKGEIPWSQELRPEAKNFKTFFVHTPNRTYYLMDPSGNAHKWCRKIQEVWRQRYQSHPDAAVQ
In words: PDK1 kinase assay: PDK1 (amino acids 51-359) and AKT2 (amino acids 140-467 fused to PIFtide, amino acids […]) were expressed as N-terminally tagged GST fusion proteins in insect cells and purified to homogeneity. Enzyme activity was determined in a coupled PDK1/AKT/FAM-crosstide assay and phosphorylation of FAM-crosstide was determined by standard IMAP protocol (Molecular Devices). For inhibition studies, compounds were titrated 4-fold in DMSO and diluted 40-fold into assay buffer (10 mM Tris HCl pH7.2; 10 mM MgCl2; 0.01% Triton X-100; 1 mM DTT) containing PDK1, AKT2, and FAM-crosstide (final concentrations: 0.75 nM PDK1, 10 nM unphosphorylated AKT2, and 100 nM crosstide substrate). The kinase reaction was initiated by adding ATP to a final concentration of 40 μM of PDK1 and incubated at 25° C. for 30 min. To detect assay product, the kinase reaction was combined with Progressive Binding Solution (1:600 Progressive Binding Reagent, 50% Buffer A, 50% Buffer B, Molecular Devices) in a 1:3 ratio. The mixture was incubated for 2 hours at 25° C. and the plate was scanned on an Analyst AD with excitation at 485 nm and emission at 530 nm. The fluorescence polarization value P is defined by the equation below. The value mP is generated by multiplying the P value for each reaction well by a factor of 1000. The value ΔmP for each well is the mP value for that well minus the mP value for the average negative control. P=(Fpar−Fperp)/(Fpar+Fperp) Eq.:Where par is fluorescence intensity parallel to the excitation plane; and perp is fluorescence intensity perpendicular to the excitation plane. ΔmP values were plotted as a function of compound concentration and the data were analyzed with a 4-parameter fit using GraphPad Prism software. Type of assay: biochemical. On the technique in general: In fluorescence polarisation assays a small probe gives low polarisation when free and higher when bound to something large.

In general, IC50 refers to the midpoint of a concentration-inhibition curve. As to `COCCNC(=O)c1cccnc1NCc1ccc(-c2ccc3ncnc(N)c3c2)s1`, the IC50 is over 5000 nM.

Take `C[C@H](NC(=O)c1cc(C#N)cnc1NCC#Cc1ccc2nc(N)ncc2c1)c1ccc(F)cc1`: the half-inhibitory concentration (IC50) is under 100 nM. For `Nc1ncc(-c2ccc(CNc3ncc(C(F)(F)F)cc3C(=O)Nc3ccc(F)cc3)cc2)nc1CO` the value was under 100 nM. For `Cc1ccc(NC(=O)c2cccnc2NCc2ccc(-c3ccc4ncnc(N)c4c3)s2)cc1F` the value was over 5000 nM.

`C[C@H](NC(=O)c1cc(C#N)cnc1N[C@H](C)c1ccc(-c2cnc3[nH]nc(N)c3c2)nc1)c1ccc(F)cc1`: the IC50 is under 100 nM. Regarding `C[C@H](NC(=O)c1nc(C#N)cnc1NCC#Cc1ccc2nc(N)ncc2c1)c1ccc(F)c(F)c1`, the 50% inhibitory concentration (IC50) was under 100 nM. For `C[C@H](NC(=O)c1nc(C(F)(F)F)cnc1NCc1ccc(-c2cnc3[nH]nc(N)c3c2)cc1)c1ccc(F)c(F)c1` the value was under 100 nM; for `Nc1ncnc2ccc(-c3ccc(CNc4ncccc4C(=O)NCc4cncc(F)c4)s3)cc12`, under 100 nM; for `C[C@H](NC(=O)c1cc(C#N)cnc1NCc1ccc(-c2cnc3[nH]c(=O)[nH]c3c2)c(F)c1)c1ccc(F)cc1`, under 100 nM. For `CCc1cnc(NCc2ccc(-c3ccc4ncnc(N)c4c3)s2)c(C(=O)NCc2ccc(F)c(F)c2)c1` the value was under 100 nM. For `Nc1ncnc2ccc(-c3ccc(CNc4ncc(Br)cc4S(=O)(=O)NCc4ccc(F)c(F)c4)s3)cc12` the value was over 5000 nM. With `N#Cc1cc(F)ccc1NC(=O)c1cc(C(F)(F)F)cnc1NCc1ccc(-c2cnc3[nH]nc(N)c3c2)cc1`, the IC50 is under 100 nM.

Consider `C[C@H](NC(=O)c1cccnc1NCc1ccc(-c2cc3c(cn2)ncn3C)s1)c1ccc(F)cc1`, for which the IC50 is over 5000 nM. For `C[C@H](NC(=O)c1nc(C#N)cnc1NCc1ccc(-c2cnc(N)c(CO)n2)cc1)c1ccc(F)c(F)c1` the value was under 100 nM; for `C[C@H](NC(=O)c1cccnc1NCc1ccc(-c2ccc3ncnc(NCCO)c3c2)s1)c1ccc(F)cc1`, under 100 nM; for `N#Cc1cnc(NCc2ccc(-c3cnc4[nH]ncc4c3)cc2)c(C(=O)NCc2ccc(F)c(F)c2)c1`, under 100 nM. For `C[C@H](NC(=O)c1nc(C#N)cnc1N[C@H](C)c1ccc(-c2cnc3[nH]nc(N)c3c2)nc1)c1ccc(F)c(F)c1` the value was under 100 nM; for `C[C@H](NC(=O)c1nc(C(F)(F)F)cnc1N[C@H](C)c1ccc(-c2cnc3[nH]nc(N)c3c2)cc1)c1ccc(F)c(F)c1`, under 100 nM. For `Cc1nc(N)cnc1-c1ccc(CNc2ncc(C#N)cc2C(=O)N[C@@H](C)c2ccc(F)cc2)cc1`, the half-maximal inhibitory concentration (IC50) is over 5000 nM. `C[C@H](NC(=O)c1cc(C#N)cnc1NCc1ccc(-c2cnc3[nH]nc(N)c3c2)cc1F)c1ccc(F)cc1`: the IC50 was under 100 nM.

Consider `C[C@H](NC(=O)c1cc(C#N)cnc1NCc1ccc(-c2cnc3[nH]c(=O)n(C)c3c2)cc1)c1ccc(F)cc1`, for which the IC50 was under 100 nM. For `C[C@H](NC(=O)c1cc(C#N)cnc1NCc1ccc(-c2cnc3[nH]nc(N)c3c2)cc1Cl)c1ccc(F)cc1` the value was under 100 nM.
